Data reported in PubChem BioAssay AID330 (DTP/NCI, 2004).
Where “and” joins values, the source holds several entries; their conditions need not be identical. Identical values can stand only once. Toxic doses and inconclusive results are not listed.

Tested on: P388 leukemia ip, CD2F1 mice, survival T/C
Assay: NCI In Vivo Anticancer Drug Screen. Data for tumor model P388 Leukemia (intraperitoneal) in CD2F1 (CDF1) mice
Settings: endpoint: median survival time, higher = longer survival
How it was run: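 Mice carrying the transplanted tumor received test compound or vehicle. Survival was recorded in each group, and the value is the treated-group measurement divided by that of the vehicle-treated control group.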

[1] = dose: 50.0 mg/kg/injection, schedule: Q01DX009 (ip), vehicle: suspension in saline
[2] = dose: 100.0 mg/kg/injection, schedule: Q01DX009 (ip), vehicle: suspension in saline
[3] = dose: 200.0 mg/kg/injection, schedule: Q01DX009 (ip), vehicle: suspension in saline
[4] = dose: 50.0 mg/kg/injection, schedule: Q01DX009 (ip), vehicle: Klucel (hydroxypropylcellulose) (HPC)
[5] = dose: 100.0 mg/kg/injection, schedule: Q01DX009 (ip), vehicle: Klucel (hydroxypropylcellulose) (HPC)
[6] = dose: 200.0 mg/kg/injection, schedule: Q01DX009 (ip), vehicle: Klucel (hydroxypropylcellulose) (HPC)
[7] = dose: 60.0 mg/kg/injection, schedule: Q01DX005 (ip), vehicle: saline with Tween-80
[8] = dose: 120.0 mg/kg/injection, schedule: Q01DX005 (ip), vehicle: saline with Tween-80
[9] = dose: 240.0 mg/kg/injection, schedule: Q01DX005 (ip), vehicle: saline with Tween-80
[10] = dose: 50.0 mg/kg/injection, schedule: Q01DX005 (ip), vehicle: saline with Tween-80
[11] = dose: 100.0 mg/kg/injection, schedule: Q01DX005 (ip), vehicle: saline with Tween-80
[12] = dose: 25.0 mg/kg/injection, schedule: Q01DX009 (ip), vehicle: saline
[13] = dose: 50.0 mg/kg/injection, schedule: Q01DX009 (ip), vehicle: saline
[14] = dose: 60.0 mg/kg/injection, schedule: Q01DX005 (ip), vehicle: Klucel (hydroxypropylcellulose) (HPC)
[15] = dose: 240.0 mg/kg/injection, schedule: Q01DX005 (ip), vehicle: Klucel (hydroxypropylcellulose) (HPC)
[16] = dose: 12.5 mg/kg/injection, schedule: Q01DX009 (ip), vehicle: saline
[17] = dose: 100.0 mg/kg/injection, schedule: Q04DX002 (ip), vehicle: saline with Tween-80
[18] = dose: 200.0 mg/kg/injection, schedule: Q04DX002 (ip), vehicle: saline with Tween-80
[19] = dose: 400.0 mg/kg/injection, schedule: Q04DX002 (ip), vehicle: saline with Tween-80

C=C(C)C12CC(C)C34OC5(OC1C3C1OC1(CO)C(O)C1(O)C(OC(=O)c3ccccc3)C(C)C(C(C)CCCCCCC5O)C14)O2 (stereo not given)
T/C (dose: 1.9 micrograms/kg/injection, schedule: Q01DX009 (ip), vehicle: distilled water + alcohol): 102 % of control | T/C (dose: 3.8 micrograms/kg/injection, schedule: Q01DX009 (ip), vehicle: distilled water + alcohol): 115 % of control | T/C (dose: 7.5 micrograms/kg/injection, schedule: Q01DX009 (ip), vehicle: distilled water + alcohol): 120 % of control | T/C (dose: 30.0 micrograms/kg/injection, schedule: Q01DX009 (ip), vehicle: distilled water + alcohol): 152 % of control

CCC(CC)C1NC(C(=O)O)CS1 (stereo not given)
T/C [1]: 93 % of control | T/C [2]: 96 % of control | T/C [3]: 92 % of control

S=C(NCc1cccnc1)Nc1ccc(Cl)c(Cl)c1
T/C [4]: 104 % of control | T/C [5]: 108 % of control | T/C [6]: 104 % of control

COc1cc(OC)c2cc(C(=O)c3cccc4ccccc34)c(=O)oc2c1
T/C [7]: 102 % of control | T/C [8]: 114 % of control | T/C [9]: 91 % of control

c1ccc(C(=C2C(=C(c3ccccc3)c3ccccc3)c3nc4ccccc4nc32)c2ccccc2)cc1
T/C (dose: 7.5 mg/kg/injection, schedule: Q01DX005 (ip), vehicle: saline with Tween-80): 90 % of control | T/C (dose: 15.0 mg/kg/injection, schedule: Q01DX005 (ip), vehicle: saline with Tween-80): 88 % of control | T/C [7]: 86 % of control | T/C [8]: 87 % of control | T/C [9]: 90 % of control

NP1(Oc2ccc(F)cc2)=NP(N)(Oc2ccc(F)cc2)=NP(Oc2ccc(F)cc2)(Oc2ccc(F)cc2)=N1 (stereo not given)
T/C [7]: 90 % of control | T/C [8]: 96 % of control | T/C [9]: 89 % of control

CC(Oc1ccc(Cl)cc1Cl)C(=O)NC(Cc1ccccc1)C(=O)O (stereo not given)
T/C [10]: 102 % of control | T/C [11]: 110 % of control | T/C (dose: 200.0 mg/kg/injection, schedule: Q01DX005 (ip), vehicle: saline with Tween-80): 102 % of control

Cc1ccc(NCCNCCO)c2c1C(=O)c1ccccc1C2=O
T/C [12]: 100 % of control and 87 % of control | T/C [13]: 99 % of control and 89 % of control | T/C [1]: 116 % of control | T/C (dose: 100.0 mg/kg/injection, schedule: Q01DX009 (ip), vehicle: saline): 101 % of control and 90 % of control | T/C [2]: 122 % of control | T/C (dose: 200.0 mg/kg/injection, schedule: Q01DX009 (ip), vehicle: saline): 87 % of control and 95 % of control | T/C [3]: 151 % of control

Cc1c(O)c2c(c(O)c1Cc1cccc(C#N)c1)C(=O)c1ccccc1C2=O
T/C (dose: 25.0 mg/kg/injection, schedule: Q01DX009 (ip), vehicle: other): 89 % of control

CCc1nc(N)nc(N)c1-c1ccc(Cl)c(N)c1
T/C (dose: 3.12 mg/kg/injection, schedule: Q01DX009 (ip), vehicle: distilled water + Tween-80): 101 % of control | T/C (dose: 6.25 mg/kg/injection, schedule: Q01DX009 (ip), vehicle: distilled water + Tween-80): 111 % of control | T/C (dose: 12.5 mg/kg/injection, schedule: Q01DX009 (ip), vehicle: distilled water + Tween-80): 110 % of control | T/C (dose: 25.0 mg/kg/injection, schedule: Q01DX009 (ip), vehicle: distilled water + Tween-80): 100 % of control | T/C (dose: 50.0 mg/kg/injection, schedule: Q01DX009 (ip), vehicle: distilled water + Tween-80): 100 % of control and 111 % of control | T/C (dose: 100.0 mg/kg/injection, schedule: Q01DX009 (ip), vehicle: distilled water + Tween-80): 105 % of control | T/C (dose: 200.0 mg/kg/injection, schedule: Q01DX009 (ip), vehicle: distilled water + Tween-80): 101 % of control | T/C (dose: 400.0 mg/kg/injection, schedule: Q01DX009 (ip), vehicle: distilled water + Tween-80): 118 % of control

O=C1c2c(O)cccc2C(Br)c2cccc(O)c21
T/C [14]: 107 % of control | T/C (dose: 120.0 mg/kg/injection, schedule: Q01DX005 (ip), vehicle: Klucel (hydroxypropylcellulose) (HPC)): 114 % of control | T/C [15]: 98 % of control

O=c1oc2ccccc2n1Cc1ccc(Cl)cc1
T/C (dose: 6.25 mg/kg/injection, schedule: Q01DX005 (ip), vehicle: saline with Tween-80): 102 % of control | T/C (dose: 12.5 mg/kg/injection, schedule: Q01DX005 (ip), vehicle: saline with Tween-80): 93 % of control | T/C (dose: 25.0 mg/kg/injection, schedule: Q01DX005 (ip), vehicle: saline with Tween-80): 99 % of control

Cc1cc2nc(N)[nH]c2cc1C
T/C (dose: 6.25 mg/kg/injection, schedule: Q01DX009 (ip), vehicle: saline with Tween-80): 102 % of control | T/C (dose: 12.5 mg/kg/injection, schedule: Q01DX009 (ip), vehicle: saline with Tween-80): 103 % of control | T/C (dose: 25.0 mg/kg/injection, schedule: Q01DX009 (ip), vehicle: saline with Tween-80): 105 % of control | T/C (dose: 50.0 mg/kg/injection, schedule: Q01DX009 (ip), vehicle: saline with Tween-80): 103 % of control

O=S(=O)(O)O.[N-]=C(N)/N=C(\[NH-])N.[N-]=C(N)/N=C(\[NH-])N.[N-]=C(N)NC(=[N-])N.[Rh+3]
T/C [16]: 100 % of control | T/C [12]: 103 % of control | T/C [13]: 107 % of control

CN=C1NC(=O)C(c2ccccc2)S1 (stereo not given)
T/C [10]: 99 % of control | T/C [11]: 99 % of control

CCCCCCCCCC(=O)C(=O)c1ccc(O)cc1O
T/C [4]: 94 % of control | T/C [5]: 93 % of control | T/C [6]: 94 % of control

COc1ccc(C2c3cc4c(cc3OC(C)(O)C2C)OCO4)c(OC)c1OC (stereo not given)
T/C [17]: 100 % of control | T/C [18]: 96 % of control | T/C [19]: 86 % of control

Cc1cc2c(=O)cc(-c3ccccc3Cl)oc2c(C#N)c1C
T/C (dose: 1.87 mg/kg/injection, schedule: Q01DX005 (ip), vehicle: Klucel (hydroxypropylcellulose) (HPC)): 95 % of control | T/C (dose: 3.75 mg/kg/injection, schedule: Q01DX005 (ip), vehicle: Klucel (hydroxypropylcellulose) (HPC)): 101 % of control | T/C (dose: 7.5 mg/kg/injection, schedule: Q01DX005 (ip), vehicle: Klucel (hydroxypropylcellulose) (HPC)): 117 % of control | T/C [14]: 86 % of control | T/C [15]: 95 % of control

c1ccc(-c2nnn(CCCN3CCOCC3)n2)cc1
T/C (dose: 100.0 mg/kg/injection, schedule: Q01DX001 (ip), vehicle: Klucel (hydroxypropylcellulose) (HPC)): 100 % of control | T/C (dose: 200.0 mg/kg/injection, schedule: Q01DX001 (ip), vehicle: Klucel (hydroxypropylcellulose) (HPC)): 97 % of control | T/C (dose: 400.0 mg/kg/injection, schedule: Q01DX001 (ip), vehicle: Klucel (hydroxypropylcellulose) (HPC)): 102 % of control

CC[C@H](CC[C@@H](C)[C@H]1CC[C@H]2[C@@H]3CC=C4C[C@@H](OC(C)=O)CC[C@]4(C)[C@H]3CC[C@]12C)C(C)C
T/C (dose: 6.25 mg/kg/injection, schedule: Q01DX009 (ip), vehicle: Klucel (hydroxypropylcellulose) (HPC)): 99 % of control and 110 % of control | T/C (dose: 12.5 mg/kg/injection, schedule: Q01DX009 (ip), vehicle: Klucel (hydroxypropylcellulose) (HPC)): 105 % of control and 107 % of control | T/C (dose: 25.0 mg/kg/injection, schedule: Q01DX009 (ip), vehicle: Klucel (hydroxypropylcellulose) (HPC)): 104 % of control and 92 % of control | T/C [4]: 98 % of control and 105 % of control | T/C (dose: 75.0 mg/kg/injection, schedule: Q01DX009 (ip), vehicle: Klucel (hydroxypropylcellulose) (HPC)): 100 % of control and 92 % of control

C[C@]12CC[C@H](OC(=O)/C=C\c3ccccc3N(CCCl)CCCl)CC1CC[C@@H]1C2CC[C@]2(C)NC(=O)CCC12 (stereo not given in full)
T/C (dose: 100.0 mg/kg/injection, schedule: Q01DX001 (ip), vehicle: saline with Tween-80): 105 % of control and 120 % of control | T/C (dose: 200.0 mg/kg/injection, schedule: Q01DX001 (ip), vehicle: saline with Tween-80): 118 % of control

CCN(CC)C(=O)c1c2nc3c(C(=O)N(CC)CC)ccc(C)c3oc-2c(C)c(=O)c1N
T/C [7]: 98 % of control | T/C [8]: 88 % of control

CN(C)C1(c2ccc3ccccc3c2)CS(=O)(=O)C1
T/C [17]: 100 % of control | T/C [18]: 98 % of control | T/C [19]: 92 % of control

CC1(C)N=C(N)N=C(N)N1c1ccc(Cl)c(C(F)(F)F)c1
T/C (dose: 3.12 mg/kg/injection, schedule: Q01DX009 (ip), vehicle: saline): 108 % of control | T/C [16]: 124 % of control | T/C (dose: 12.5 mg/kg/injection, schedule: Q01DX009 (ip), vehicle: suspension in saline): 155 % of control | T/C (dose: 25.0 mg/kg/injection, schedule: Q01DX009 (ip), vehicle: suspension in saline): 172 % of control
